From article PMC11372076, “A dual inhibitor of PIP5K1C and PIKfyve prevents SARS-CoV-2 entry into cells” (Experimental & Molecular Medicine, 2024)

What was measured:
cathepsin D = assay: Cathepsin D maturation by Western blot; format: cell-based
[1] = tested on: Wuhan-Hu-1 spike-pseudotyped virus; assay: microbe, parasite or virus in culture; format: cell-based, SARS-CoV-2
SARS-CoV-2 [2] = assay: microbe, parasite or virus in culture; format: cell-based, SARS-CoV-2 (hCoV-19/Korea/KCDC06/2020); details: for EC50: Severe acute respiratory syndrome coronavirus 2, Vero, 48 h, read-out: EC50 (reducing number of spike-positive cells by 50%); for selectivity index (SI), ratio of CC50 to EC50: Vero cells, Day 2
in vitro = details: African green monkey
PIKFYVE = PIKFYVE (Homo sapiens, UniProt Q9Y2I7); assay: SelectScreen Kinase Profiling Service (PIPK profiling); format: biochemical; details: [ATP] 100 μM; 1 μM (concentration stated for UNI418 only)
PIKFYVE, sequence (Q9Y2I7 whole entry): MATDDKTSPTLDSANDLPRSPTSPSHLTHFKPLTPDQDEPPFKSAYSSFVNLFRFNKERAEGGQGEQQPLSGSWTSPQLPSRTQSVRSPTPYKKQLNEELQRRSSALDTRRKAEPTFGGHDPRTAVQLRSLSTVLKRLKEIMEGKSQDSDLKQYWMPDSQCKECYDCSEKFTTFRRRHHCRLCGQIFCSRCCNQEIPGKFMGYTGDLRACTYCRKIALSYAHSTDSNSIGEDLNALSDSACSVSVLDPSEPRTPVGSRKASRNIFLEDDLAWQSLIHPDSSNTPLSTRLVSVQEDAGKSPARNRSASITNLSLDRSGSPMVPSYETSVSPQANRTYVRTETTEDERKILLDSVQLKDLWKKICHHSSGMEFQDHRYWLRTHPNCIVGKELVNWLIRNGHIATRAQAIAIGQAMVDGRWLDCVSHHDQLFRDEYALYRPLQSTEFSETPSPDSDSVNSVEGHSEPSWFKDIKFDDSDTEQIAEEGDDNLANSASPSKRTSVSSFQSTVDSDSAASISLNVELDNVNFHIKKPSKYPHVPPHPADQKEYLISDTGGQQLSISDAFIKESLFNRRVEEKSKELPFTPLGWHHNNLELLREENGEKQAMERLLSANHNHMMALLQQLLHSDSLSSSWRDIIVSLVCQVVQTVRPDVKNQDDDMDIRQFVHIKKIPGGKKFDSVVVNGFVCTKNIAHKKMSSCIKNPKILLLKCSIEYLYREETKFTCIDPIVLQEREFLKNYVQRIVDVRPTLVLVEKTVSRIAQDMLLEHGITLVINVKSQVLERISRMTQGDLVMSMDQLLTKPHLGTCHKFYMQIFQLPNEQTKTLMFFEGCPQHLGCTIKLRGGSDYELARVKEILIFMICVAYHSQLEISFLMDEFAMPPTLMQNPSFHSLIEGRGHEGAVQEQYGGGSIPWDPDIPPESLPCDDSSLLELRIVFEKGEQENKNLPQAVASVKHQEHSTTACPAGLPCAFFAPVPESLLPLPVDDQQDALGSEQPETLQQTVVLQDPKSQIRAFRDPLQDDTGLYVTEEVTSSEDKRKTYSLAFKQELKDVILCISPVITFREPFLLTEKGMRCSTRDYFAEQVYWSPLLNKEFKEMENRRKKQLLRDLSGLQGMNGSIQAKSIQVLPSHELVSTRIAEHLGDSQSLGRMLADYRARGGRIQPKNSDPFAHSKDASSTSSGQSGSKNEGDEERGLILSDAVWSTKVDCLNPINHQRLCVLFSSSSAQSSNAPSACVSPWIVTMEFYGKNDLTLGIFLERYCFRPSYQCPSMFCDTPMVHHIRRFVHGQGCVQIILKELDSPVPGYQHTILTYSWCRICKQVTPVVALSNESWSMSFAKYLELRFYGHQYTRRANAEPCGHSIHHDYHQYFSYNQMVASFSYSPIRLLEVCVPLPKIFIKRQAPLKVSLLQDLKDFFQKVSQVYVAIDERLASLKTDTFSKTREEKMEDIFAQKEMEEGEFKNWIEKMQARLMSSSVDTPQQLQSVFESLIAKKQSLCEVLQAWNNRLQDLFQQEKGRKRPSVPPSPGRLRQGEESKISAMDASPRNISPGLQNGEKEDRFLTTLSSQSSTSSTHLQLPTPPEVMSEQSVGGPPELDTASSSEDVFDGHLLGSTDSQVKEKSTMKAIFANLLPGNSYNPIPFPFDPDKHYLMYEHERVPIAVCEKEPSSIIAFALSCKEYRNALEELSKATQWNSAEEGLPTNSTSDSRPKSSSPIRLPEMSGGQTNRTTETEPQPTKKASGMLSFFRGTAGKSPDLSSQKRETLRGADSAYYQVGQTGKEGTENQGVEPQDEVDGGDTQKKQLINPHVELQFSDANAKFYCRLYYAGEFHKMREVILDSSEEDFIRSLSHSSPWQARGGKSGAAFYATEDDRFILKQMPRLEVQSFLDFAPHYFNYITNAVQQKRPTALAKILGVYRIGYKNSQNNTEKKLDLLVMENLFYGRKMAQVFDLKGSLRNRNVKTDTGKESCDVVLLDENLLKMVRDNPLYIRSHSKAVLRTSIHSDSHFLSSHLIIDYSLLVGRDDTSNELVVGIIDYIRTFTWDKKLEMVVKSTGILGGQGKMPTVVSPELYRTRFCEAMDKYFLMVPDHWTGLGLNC
Description: UNI418 has a core structure consisting of 4-quinazolinamine (Fig. 1a, green), which is often found in kinase inhibitors. […] The phosphoinositide (PI) system is a crucial regulatory mechanism in membrane trafficking and is tightly regulated through phosphorylation cascades by multiple phosphatidylinositol phosphate kinases (PIPKs)[30]. We hypothesized that UNI418 may inhibit PIPK(s) and performed PIPK profiling analysis. […] To test whether UNI418 interacts with PIP5K1C and PIKfyve, we performed a CETSA, which determines the characteristics of protein stabilization upon ligand binding to the target protein[31]. UNI418- or DMSO-treated cell lysates were incubated at different temperatures, and the presence of the target protein in the soluble fraction was analyzed by Western blotting (Fig. 1c).
Fig. 1 UNI418 specifically targets PIP5K1 and PIKfyve. a Chemical structure of UNI418. The 4-quinazolinamine core is highlighted in green. b Table of the kinase profiling analysis. Inhibition of several kinases was determined at a 1 μM concentration of UNI418 and analyzed by the SelectScreen Kinase Profiling Service (Thermo Fisher Scientific). c Cellular thermal shift assay. Ectopically expressed GFP-PIP5K1C and GFP-PIKfyve were heated to the indicated temperatures with/without UNI418, and the presence of protein in the soluble fraction was analyzed by Western blot analysis. TEXT PRINTED IN THE PICTURE: (b) UNI418: % Inhibition (mean): 11 ([ATP] Tested (μM): 10; Kinase Tested: PI4K2A (PI4K2 alpha)); % Inhibition (mean): 4 ([ATP] Tested (μM): 10; Kinase Tested: PI4K2B (PI4K2 beta)); % Inhibition (mean): -6 ([ATP] Tested (μM): 10; Kinase Tested: PI4KA (PI4K alpha)); % Inhibition (mean): 48 ([ATP] Tested (μM): Km app; Kinase Tested: PI4KB (PI4K beta)); % Inhibition (mean): 20 ([ATP] Tested (μM): 10; Kinase Tested: PIK3C2B (PI3K-C2 beta)); % Inhibition (mean): 22 ([ATP] Tested (μM): 10; Kinase Tested: PIK3C2G (PI3K-C2 gamma)); % Inhibition (mean): 4 ([ATP] Tested (μM): 100; Kinase Tested: PIK3C3 (hVPS34)); % Inhibition (mean): 8 ([ATP] Tested (μM): 10; Kinase Tested: PIK3CA/PIK3R3 (p110 alpha/p55 gamma)); % Inhibition (mean): 7 ([ATP] Tested (μM): 10; Kinase Tested: PIK3CB/PIK3R2 (p110 beta/p85 beta)); % Inhibition (mean): 9 ([ATP] Tested (μM): 10; Kinase Tested: PIP4K2A); % Inhibition (mean): 67 ([ATP] Tested (μM): 10; Kinase Tested: PIP5K1A); % Inhibition (mean): 93 ([ATP] Tested (μM): 10; Kinase Tested: PIP5K1B); % Inhibition (mean): 93 ([ATP] Tested (μM): 10; Kinase Tested: PIP5K1C); % Inhibition (mean): 100 ([ATP] Tested (μM): 100; Kinase Tested: PIKFYVE) | (b) Apilimod: % Inhibition (mean): 100 ([ATP] Tested (μM): 100; Kinase Tested: PIKFYVE) […]

Vero cells = assay: Endosomal pH change test with acridine orange; format: cell-based; details: 1 µM for 1 h
Procedure: This image-based experiment was performed according to our previous report with some modifications. Vero cells were cultured in a glass bottom 35 mm dish (6 × 10^4 cells per well) overnight. Each compound, including 1 µM UNC3230, apilimod or UNI418, was added to Vero cells for 1 h at 37 °C. The cells were stained with acridine orange (Sigma‒Aldrich, A9231) at a final concentration of 4 µg/mL for 30 min. After washing with PBS twice, images were acquired using a confocal microscope (Zeiss LSM 700, Baden-Württemberg, Germany) at two emission wavelengths, 493 to 560 nm and 590 to 720 nm, with excitation at 488 nm. The green-to-red ratio or vacuole size was measured using the built-in software ZEN 3.1.
Fig. 3 UNI418 negatively affects autophagosome-lysosome fusion and endosome acidification. a Live-cell imaging of HEK293T cells stably expressing mCherry-GFP-LC3 treated with 0.5 μM UNI418 at the indicated time points; the images within the white rectangular boxes are magnified on the right side. Scale bar, 30 µm. The number (b) and area (c) of GFP-positive dots per cell were quantified by ImageXpress. d Immunofluorescence images illustrating the inhibition of endolysosomal acidification by UNI418. Vero cells were treated with the mock control or 1 µM UNC3230, apilimod or UNI418 for 1 h at 37 °C. Acridine orange (4 µg/mL) was added to the compound-treated live cells, followed by additional incubation for 30 min. The cells were analyzed by confocal microscopy using two emission wavelengths at 493–560 (green) and 590–720 nm (red) after excitation at 488 nm. Merged images are presented, and images within the white rectangular boxes are magnified on the right side. Original magnification, 630×. The green-to-red fluorescence intensity ratio (e) and the area of fluorescent spots (f) were quantified. b, c, e, f The data are presented as the means ± SEMs, with a minimum of 200 spots. Statistical significance was determined by Student’s t test; *p < 0.05, **p < 0.01, ***p < 0.001 and ****p < 0.0001. n.s., not significant.

[3] = tested on: ACE2-mediated endocytosis in HEK293T cells; format: cell-based; details: 0.5 μM compound, 20 μg/mL spike-RBD, 2 h
SARS-CoV-2 [4] = format: cell-based

SMILES | proteolytic cleavage (maturation) of cathepsin D (cathepsin D) | pseudotyped virus entry [1] | EC50 (SARS-CoV-2 [2]) | selectivity index (SI), ratio of CC50 to EC50 (SARS-CoV-2 [2]) | CC50 (in vitro) | inhibition at 1 µM (PIKFYVE) | green-to-red ratio of fluorescent spots relative to mock-treated sample (Vero cells) | ACE2-mediated endocytosis triggered by spike-RBD [3] | reduction in the levels of the viral NP gene (viral genome copies) (SARS-CoV-2 [4]) | IC50 ([1]; Severe acute respiratory syndrome coronavirus 2, 293T/ACE2, read-out: concentration that inhibited spike-mediated viral entry by 50% compared to maximal inhibition)
c1ccc(-c2cc(Nc3nc(-c4ccncc4)nc4ccccc34)n[nH]2)cc1 [UNI418, N -(5-phenyl-1 H -pyrazol-3-yl)-2-(4-pyridinyl)-4-quinazolinamine] | considerably inhibited | markedly inhibited | 1400 nM | 45.6 | 62300 nM | 100% | 6.3 fold | successfully inhibited | approximately 2 log | 
Cc1cccc(/C=N/Nc2cc(N3CCOCC3)nc(OCCc3ccccn3)n2)c1 [apilimod] | largely inhibited |  | 300 nM | 272.6 | 73600 nM | 100% | 2.2 fold | did not obviously inhibit | approximately 2 log | 5 nM
